According to patent US10087191B2, “Piperidine derivative and preparation method and pharmaceutical use thereof” (Jiangsu Hengrui Medicine Co., Ltd., priority 2015, dated 2018):
Where two headings read alike, the source gives them in different places.

Columns and labels:
Format in all cases: cell-based
MCF7 cells = experiment: Inhibition of the proliferation of MCF7 cells (Cell Titer-Glo); details: Homo sapiens, MCF-7 cells, 72 hours, read-out: IC50 value of inhibition effect on the proliferation of MCF7 cells
Experimental: The object of this experiment was to determine the inhibition effect of the compounds on the proliferation activity of MCF7 cells, and the in vitro activity of the compounds was evaluated according to the IC50 value.
After incubation for 24 hours, the medium was removed, then 90 μl of the medium containing 2% FBS and 10 μl of the drug were added to each well, 10 μl of DMSO were added to the control group, and the blank group contained only 100 μl medium containing 2% FBS. The plate was gently shaken and incubated in a incubator at 37° C., 5% CO2. After 72 hours, 50 μl of mixed Cell Titer-Glo (Promega, Cat. No. G7571) were added to each well. The plate was shaken until the ingredients were well mixed, and placed at room temperature for 10 minutes, then the chemiluminescence signal value was determined.
The values of the chemiluminescence signals vs the logarithmic concentrations of the compounds were plotted using Graghpad Prism to obtain IC50 values.

ERα = ERα (Homo sapiens (Human), UniProt P03372); experiment: Degradation effect on ERα in MCF-7 cells (ERα Duoset ELISA); details: read-out: IC50 value of the degradation effect on ERα
Sequence of ERα (P03372 whole entry): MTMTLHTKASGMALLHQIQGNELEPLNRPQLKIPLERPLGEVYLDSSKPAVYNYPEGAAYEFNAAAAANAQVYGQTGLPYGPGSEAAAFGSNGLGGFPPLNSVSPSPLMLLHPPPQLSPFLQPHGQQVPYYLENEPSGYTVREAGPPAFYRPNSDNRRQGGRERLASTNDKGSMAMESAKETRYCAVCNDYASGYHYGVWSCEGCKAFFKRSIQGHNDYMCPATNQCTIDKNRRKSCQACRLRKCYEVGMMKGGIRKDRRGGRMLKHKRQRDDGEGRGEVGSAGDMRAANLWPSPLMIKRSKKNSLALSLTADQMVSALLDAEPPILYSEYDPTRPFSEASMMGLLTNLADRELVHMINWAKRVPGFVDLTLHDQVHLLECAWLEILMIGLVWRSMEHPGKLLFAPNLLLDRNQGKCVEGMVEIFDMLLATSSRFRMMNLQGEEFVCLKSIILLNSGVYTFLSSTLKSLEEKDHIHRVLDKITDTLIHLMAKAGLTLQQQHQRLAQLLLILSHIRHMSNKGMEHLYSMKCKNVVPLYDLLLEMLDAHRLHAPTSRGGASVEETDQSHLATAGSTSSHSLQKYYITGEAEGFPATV
Experimental: In order to determine the degradation effect on ER induced by the compounds of the present invention, the following method was used to determine the degradation effect of the compounds of the present invention on ER.
MCF-7 cell line (TChu 74, Cell Bank of Chinese Academy of Sciences typical culture preservation Committee)
ERα Duoset Kit (#DYC5715E, R&D System)
MCF-7 cells were incubated in DMEM/F-12 medium containing 10% FBS.
On the first day of the experiment, MCF-7 cells were resuspended in DMEM/F-12 medium containing 10% FBS treated by activated carbon, then inoculated into a 48-well plate with a density of 50,000 cells/well and incubated for 22-24 hours.
On the second day of the experiment, the test compound was diluted with medium and added to a 48-well plate. The ERα-capture antibody was diluted to 1 μg/ml with PBS, and added to a 96-well plate at 100 μl/well. The plate was sealed and coated overnight at room temperature.
On the third day of the experiment, the coated 96-well plate was washed twice with PBS, added with a sealing solution (1% BSA in PBS) at 110 μl/well and sealed for 1 hour at room temperature. The 48-well plate was washed once with PBS, and the residual liquid was removed. Then, 60 μl of lysis (6 M urea, 1 mM EDTA, 0.5% Triton X-100, 1 mM PMSF, Protease Inhibitor cocktail) was added to each well. After lysis on ice for 15 minutes, the diluent (1 mM EDTA, 0.5% TritonX-100 dissolved in PBS) was added. The cell-diluted lysate was transferred to a 96-well plate at 100 μl/well, then the plate was incubated at room temperature for 2 hours. The diluted primary antibody was added after the plate was washed 4 times with a washing liquid (PBST). After incubation for 1 hour, the 96-well plate was washed 4 times, and the second antibody was added, then the plate was incubated for 30 minutes. After the plate was washed with a washing liquid, TMB chromogenic solution was added and incubated for 15 minutes. The reaction was stopped by the addition of 1 M H2SO4, then the light absorption at 450 nm was read.

estrogen receptor (ER) = estrogen receptor (ER) (Homo sapiens (Human), UniProt P03372); experiment: Inhibition of the binding of estrogen (E) to estrogen receptor (ER), MCF-7/ERE-luciferase reporter cells; details: MCF-7/ERE-luciferase cells, 0.1 nM estradiol, 24 hours; read-out: IC50 value of inhibition effect on the binding of E to ER
Sequence of estrogen receptor (ER) (P03372 whole entry): as above
Experimental: The inhibition effect of the compounds on the binding of E to ER in vitro was tested by the following method.
The object of this experiment was to determine the inhibition effect of the compounds on the binding of E to ER, and the in vitro activity of the compounds was evaluated according to the IC50 value.
MCF-7/ERE-luciferase cells were inoculated into the MEM medium (hyclone, SH30024.01B) containing 10% charcoal stripped FBS (Moregate, FBSF), 1% sodium pyruvate (Sigma, Cat. No. S8636), 1% nonessential amino acids (Sigma, Cat. No. M7145) and 500 μg/ml G418 in a 96-well plate with a density of 30,000 cells/well, and the cells were incubated under the conditions of 37° C. and 5% CO2. […] After incubation for 24 hours, the medium was removed, then 0.1 nM estradiol (Sigma, Cat. No. E2758) and 10 μl of the drug diluted with the medium were added to each well, and the control group was added with DMSO. The plate was gently shaken and incubated in a incubator at 37° C., 5% CO2. After 24 hours, the cell culture medium was discarded.
The inhibition effect of the compounds of the present invention on the binding of E to ER was tested by the experiment described above.

Row | IC50 (MCF7 cells) [nM] | IC50 (estrogen receptor (ER)) [nM] | SMILES | DC50 (ERα) [nM] | DC50 (ERα; MCF-7 cells) [nM]
1 | 0.46 |  | CC1Cc2cc(-c3cnn(C(F)F)c3)ccc2C(c2c(F)cc(/C=C/C(=O)O)cc2F)N1CC(C)(C)F (centres unmarked) [Example 13] |  | 6.93
2 | 0.34 |  | CCn1cc(-c2cc3c(cc2F)C(c2c(F)cc(/C=C/C(=O)O)cc2F)N(CC(C)(C)F)C(C)C3)cn1 [Example 17, (E)-3-(4-((1S,3R/1R,3S)-6-(1-ethyl-1H-pyrazol-4-yl)-7-fluoro-2-(2-fluoro-2-methylpropyl)-3-methyl-1,2,3,4-tetrahydroisoquinolin-1-yl)-3,5-difluorophenyl)acrylic acid] |  | 1.43
3 | 1.03 |  | CCCn1cc(-c2ccc3c(c2)CC(C)N(CC(C)(C)F)C3c2c(F)cc(/C=C/C(=O)O)cc2F)cn1 [Example 18, (E)-3-(3,5-difluoro-4-((1S,3R/1R,3S)-2-(2-fluoro-2-methylpropyl)-3-methyl-6-(1-propyl-1H-pyrazol-4-yl)-1,2,3,4-tetrahydroisoquinolin-1-yl)phenyl)acrylic acid] |  | 4.2
4 | 1.63 |  | Cc1ncc(-c2ccc3c(c2)CC(C)N(CC(C)(C)F)C3c2c(F)cc(/C=C/C(=O)O)cc2F)o1 [Example 49, (E)-3-(3,5-difluoro-4-((1S,3R/1R,3S)-2-(2-fluoro-2-methylpropyl)-3-methyl-6-(2-methyloxazol-5-yl)-1,2,3,4-tetrahydroisoquinolin-1-yl)phenyl)acrylic acid] |  | 6.29
5 | 17.5 | 20.5 | CC1Cc2cc3c(cc2C(c2ccc(/C=C/C(=O)O)cc2)N1CC(C)(C)F)OCO3 (centres unmarked) [Example 83, (E)-3-(4-(6-(2-fluoro-2-methylpropyl)-7-methyl-5,6,7,8-tetrahydro-[1,3]dioxolo[4,5-g]isoquinolin-5-yl)phenyl)acrylic acid] |  | 
6 | 7.3 | 21.9 | CC1Cc2c(oc3cc(Cl)ccc23)C(c2c(F)cc(/C=C/C(=O)O)cc2F)N1CC(C)(C)F [Example 85, (E)-3-(4-((1R,3R/1S,3S)-7-chloro-2-(2-fluoro-2-methylpropyl)-3-methyl-1,2,3,4-tetrahydrobenzofuro[2,3-c]pyridin-1-yl)-3,5-difluorophenyl)acrylic acid] |  | 
7 | 1.83 | 0.85 | C[C@@H]1Cc2cc(-c3ccc4cnccc4c3)ccc2[C@@H](c2c(F)cc(/C=C/C(=O)O)cc2F)N1CC(C)(C)F [Example 98, (E)-3-(3,5-difluoro-4-((1S,3R)-2-(2-fluoro-2-methylpropyl)-3-methyl-1,2,3,4-tetrahydro-[6,6′-biisoquinolin]-1-yl)phenyl)acrylic acid] |  | 
8 | 2.07 | 3.14 | CC1Cc2c(ccc3[nH]ncc23)C(c2ccc(/C=C/C(=O)O)cc2)N1CC(C)(C)F [Example 101, (E)-3-(4-((6S,8R/6R,8S)-7-(2-fluoro-2-methylpropyl)-8-methyl-6,7,8,9-tetrahydro-3H-pyrazolo[4,3-f]isoquinolin-6-yl)phenyl)acrylic acid] |  | 
9 | 4.99 | 0.64 | CC(C)CN1C(C)Cc2c(ccc3[nH]ncc23)C1c1ccc(/C=C/C(=O)O)cc1 [Example 102, (E)-3-(4-((6R,8R/6S,8S)-7-isobutyl-8-methyl-6,7,8,9-tetrahydro-3H-pyrazolo[4,3-f]isoquinolin-6-yl)phenyl)acrylic acid] |  | 
10 | 2.95 | 1.32 | CC1Cc2c(ccc3[nH]ncc23)C(c2c(F)cc(/C=C/C(=O)O)cc2F)N1C1CCCC1 [Example 103, (E)-3-(4-((6S,8R/6R,8S)-7-cyclopentyl-8-methyl-6,7,8,9-tetrahydro-3H-pyrazolo[4,3-f]isoquinolin-6-yl)-3,5-difluorophenyl)acrylic acid] |  | 

Row | SMILES | IC50 (MCF7 cells) [nM] | IC50 (estrogen receptor (ER)) [nM] | DC50 (ERα) [nM] | DC50 (ERα; MCF-7 cells) [nM]
11 | CC1Cc2cc3c(cc2C(c2c(F)cc(/C=C/C(=O)O)cc2F)N1CC(C)(C)F)OCO3 [Example 1, (E)-3-(3,5-difluoro-4-((5S,7R/5R,7S)-6-(2-fluoro-2-methylpropyl)-7-methyl-5,6,7,8-tetrahydro-[1,3]dioxolo[4,5-g]isoquinolin-5-yl)phenyl)acrylic acid] | 0.12 |  | 0.11 | 
12 | CC1Cc2c(oc3ccccc23)C(c2c(F)cc(/C=C/C(=O)O)cc2F)N1CC(C)(C)F [Example 4, (E)-3-(3,5-difluoro-4-((1R,3R/1S,3S)-2-(2-fluoro-2-methylpropyl)-3-methyl-1,2,3,4-tetrahydrobenzofuro[2,3-c]pyridin-1-yl)phenyl)acrylic acid] | 0.19 |  |  | 0.56
13 | CC1Cc2c(sc3ccccc23)C(c2c(F)cc(/C=C/C(=O)O)cc2F)N1CC(C)(C)F [Example 5, (E)-3-(3,5-difluoro-4-((1R,3R/1S,3S)-2-(2-fluoro-2-methylpropyl)-3-methyl-1,2,3,4-tetrahydrobenzo[4,5]thieno[2,3-c]pyridin-1-yl)phenyl)acrylic acid] | 1.2 |  |  | 3.94
14 | CC1Cc2sc3ccccc3c2C(c2c(F)cc(/C=C/C(=O)O)cc2F)N1CC(C)(C)F [Example 6, (E)-3-(3,5-difluoro-4-((1R,3R/1S,3S)-2-(2-fluoro-2-methylpropyl)-3-methyl-1,2,3,4-tetrahydrobenzo[4,5]thieno[3,2-c]pyridin-1-yl)phenyl)acrylic acid] | 1.91 |  |  | 1.92
15 | CC1Cc2cc(-c3cnn(C)c3)c(F)cc2C(c2c(F)cc(/C=C/C(=O)O)cc2F)N1CC(C)(C)F [Example 16, (E)-3-(3,5-difluoro-4-((1S,3R/1R,3S)-7-fluoro-2-(2-fluoro-2-methylpropyl)-3-methyl-6-(1-methyl-1H-pyrazol-4-yl)-1,2,3,4-tetrahydroisoquinolin-1-yl)phenyl)acrylic acid] | 0.47 |  |  | 3.11
16 | CC1Cc2c(ccc3[nH]ncc23)C(c2c(F)cc(/C=C/C(=O)O)cc2F)N1CC(C)(C)F [Example 70, (E)-3-(3,5-difluoro-4-((6S,8R/6R,8S)-7-(2-fluoro-2-methylpropyl)-8-methyl-6,7,8,9-tetrahydro-3H-pyrazolo[4,3-f]isoquinolin-6-yl)phenyl)acrylic acid] | 0.14 |  |  | 0.77
